These results are taken from US12466885B2, “Bispecific chimeric antigen receptors and encoding polynucleotides, vectors and cells thereof” (Seattle Children's Hospital, priority 2012, dated 2025).

The test system of one assay is huEGFRt^+ T cells. Put plainly: ADCC of huEGFRt^+ T cells, 4-hour chromium release assay. Type of assay: cell-based, human. From the text: A valuable feature of a cell surface selection/tracking marker would be its capacity to serve as a target for in vivo cell ablation.
^51Cr-labeled huEGFRt^+ T cells as the target cells and human GM-CSF activated fresh PBMCs as effectors were co-cultured.

Another assay has as its system transduced CTLL2 cells. Put plainly: MTX resistance and selection of CD19CAR-huEGFRt-hDHFR^FS transduced CTLL2 cells. Type of assay: cell-based, murine. Particulars: for huEGFRt^+ cells: 8 days. Here is the method:
CTLL2 T cells were first transduced with this CD19CAR-huEGFRt-hDHFR^FS lentiviral vector and evaluated for their resistance to MTX.
To further characterize the maximum dose of MTX that could be tolerated by selected CTLL2 cells, transduced CTLL2 cells that had been cultured in 0.1 μM MTX for 8 days were re-plated at a wider range of MTX concentrations (up to 0.75 μM).

The test system of assay [1] is transduced primary human T cells (CD62L^+CD45RO^+). Put plainly: MTX selection of CD19CAR-huEGFRt-hDHFR^FS transduced primary human T cells. Type of assay: cell-based. As to the method: (§1) Applicants transduced primary human T cells with the same CD19CAR-huEGFRt-hDHFR^FS lentiviral vector. Purified CD62L^+CD45RO^+ T cells were used as a starting population based on their potential for persistence after adoptive transfer. Ten days after transduction, these T cells were cultured in varying concentrations of MTX and assessed for cell number and viability over time.

Assay [2] relates to non-transduced primary human T cells. Put plainly: MTX effect on non-transduced primary human T cells. Type of assay: cell-based. Particulars: starting at concentrations as low as 0.025 μM MTX. Here is the method:
as §1

Assay [3] concerns non-transduced CTLL2 cells. Put plainly: MTX effect on non-transduced CTLL2 cells. Type of assay: cell-based, murine. Particulars: ≥0.05 μM MTX. The text has this: In the absence of MTX, the non-transduced and transduced CTLL2 cells expanded at an equivalent rate (21- and 27-fold respectively).

For the molecule RITUXAN® (rituximab): CD20-specific mAb, the “triggering ADCC of huEGFRt^+ T cells” value in the assay on huEGFRt^+ T cells is “no effect”.

For `CN(Cc1cnc2nc(N)nc(N)c2n1)c1ccc(C(=O)N[C@@H](CCC(=O)O)C(=O)O)cc1` [MTX, methotrexate], the “huEGFRt^+ cells” value in the assay on transduced CTLL2 cells (0.01 μM MTX) is 49%; in the assay with transduced CTLL2 cells (0.025 μM MTX), 93%; in the assay on transduced CTLL2 cells (0.05 μM MTX), 98.5%; in the assay on transduced CTLL2 cells (0.1 μM MTX), 99%. Besides, the “expansion of transduced cells” value in the assay on transduced CTLL2 cells (MTX (0-0.1 μM) for 8 days) was 7 fold. In addition, the “survival of transduced cells” value in the assay on transduced CTLL2 cells (MTX (0-0.1 μM) for 8 days) is reported as 80%. Further, the “expansion of transduced and pre-MTX selected cells” value in the assay with transduced CTLL2 cells (MTX concentrations up to 0.25 μM, pre-cultured in 0.1 μM MTX for 8 days) is on record as 90-100 fold. Further, the “CD19CAR^+ cells” value in assay [1] (0.025 μM MTX, 10 days) is on record as “about 54%”; in assay [1] (0.05 μM MTX, 10 days), “about 76%”; in assay [1] (Day 6 of culture (Day 0: 18%)), 48%; in assay [1] (Day 10 of culture), 70%. Moreover, the “EGFRt^+ cells” value in assay [1] (0.025 μM MTX, 10 days) is ~79%; in assay [1] (0.05 μM MTX, 10 days), ~89%; in assay [1] (Day 6 of culture (Day 0: 28%)), 71%; in assay [1] (Day 10 of culture) it was 88%. The “viability of transduced T cells” value in assay [1] (0.1 μM MTX) was 63%. Besides, in assay [2], the “viability and fold-expansion of non-transduced primary human T cells” value is recorded as “strong inhibition”. Also, in assay [3], the “non-transduced CTLL2 cell expansion and viability” value was “strong inhibition”.
